These results are taken from ChEMBL document CHEMBL1128289, “Reductive chemistry of the novel hypoxia-selective cytotoxin 5-[N,N-bis(2-chloroethyl)amino]-2,4-dinitrobenzamide” (J Med Chem, 1995).

One assay concerns CHO-AA8. Put plainly: Cytotoxicity in a growth inhibition assay against aerobic cultures of AA8 cells was determined. The class given is functional, cell-based, Cricetulus griseus.
The test system of a further assay is UV4. Put plainly: Cytotoxicity in a growth inhibition assay against aerobic cultures of UV4 cells was determined. The class given is functional, cell-based. The note with it: Cricetulus griseus.

The IC50 is the concentration that inhibits the measured activity by half. A low value points to greater potency in that assay.

Turning to `NC(=O)c1cc2c(cc1[N+](=O)[O-])NCCN2CCCl`, the IC50 in the assay on CHO-AA8 (Cricetulus griseus, CHO-AA8) was found to be 730 µM; in the assay on UV4, 49 µM.

For the compound `NC(=O)c1cc2c(cc1N)NCCN2CCCl`, the IC50 in the assay with CHO-AA8 (Cricetulus griseus, CHO-AA8) is 6.9 µM; in the assay with UV4 it was 0.87 µM.

With `NC(=O)c1cc(N(CCCl)CCCl)c([N+](=O)[O-])cc1[N+](=O)[O-]`, the 50% inhibitory concentration (IC50) with CHO-AA8 (cho-aa8) was 1600 µM; in the assay with UV4, 960 µM.

As for `NC(=O)c1cc(N(CCO)CCO)c(N)cc1N`, the IC50 in the assay on CHO-AA8 (Cricetulus griseus, CHO-AA8) was determined as 2300 µM; in the assay on UV4 it was 3000 µM.
